# According to patent US11066445B2, “Immunomodulators acting as antagonists of PD-1” (Bristol-Myers Squibb Company, priority 2017, dated 2021):
# Starred links: 1 amine or outer side, 2 acyl side, 3 side chain; linkers in the order of their positions; H or OH if unused. Positions of bridges follow the written chain, without caps; N, C: chain ends. Non-standard residues stand in square brackets, D forms with d. Residues, ends and D or L forms follow the SMILES beside them. *: point of attachment. X3 = O=C(O)CCCCCCCCCCCCCCCCC(=O)N[C@@H](CCC(=O)NCCCOCCOCCOCCCN*)C(=O)O; Trp(1-CH2CONHSO2Me) = CS(=O)(=O)NC(=O)Cn1cc(C[C@H](N)C(=O)O)c2ccccc21; X1 = O=C(O)CCCCCCCCCCCCCCC(=O)N[C@@H](CCC(=O)NCCCOCCOCCOCCCN*)C(=O)O; Trp(4-aza,1-CH2COOH) = N[C@@H](Cc1cn(CC(=O)O)c2cccnc12)C(=O)O; X6 = COc1ccc2c(c1)c(C[C@H](N[*:1])C(=O)[*:2])cn2CC(=O)O; X2 = O=C(O)Cn1cc(C[C@@H](N[*:1])C(=O)[*:2])c2cccnc21; Hyp = O=C(O)[C@@H]1C[C@@H](O)CN1; NMeNle = CCCC[C@H](NC)C(=O)O; NMeA = CN[C@@H](C)C(=O)O; Dab = NCC[C@H](N)C(=O)O; Dap = NC[C@H](N)C(=O)O
# Biological target: T1, PD-1-Ig binding to PD-L1-TVMV-His (PD-L1-His) (Homo sapiens, UniProt Q9NZQ7)
# T1 construct: hPDL1(19-239)-TVMV-His; TVMV protease cleavage site (C); made in house; host or cells: HEK293T cells
# Experiment: PD-1/PD-L1 Homogenous Time-Resolved Fluorescence (HTRF) binding assay
# Conditions: PD-1-Ig (20 nM) / PD-L1-His (10 nM); numeric values; read-out: LE HTRF hPD1 hPDL1 IC50
# Excerpt: Methods for Testing the Ability of Macrocyclic Peptides to Compete for the Binding of Pd-1 to Pd-L1 Using Homogenous Time-Resolved Fluorescence (HTRF) Binding Assays
# The ability of the macrocyclic peptides of the present disclosure to bind to PD-L1 was investigated using a PD-1/PD-L1 Homogenous Time-Resolved Fluorescence (HTRF) binding assay.
# Homogenous Time-Resolved Fluorescence (HTRF) Assays of Binding of Soluble PD-1 to Soluble PD-L1. Soluble PD-1 and soluble PD-L1 refers to proteins with carboxyl-end truncations that remove the transmembrane-spanning regions and are fused to heterologous sequences, specifically the Fc portion of the human immunoglobuling G sequence (Ig) or the hexahistidine epitope tag (His). All binding studies were performed in an HTRF assay buffer consisting of dPBS supplemented with 0.1% (w/v) bovine serum albumin and 0.05% (v/v) Tween-20. For the PD-1-Ig/PD-L1-His binding assay, inhibitors were pre-incubated with PD-L1-His (10 nM final) for 15 m in 4 μl of assay buffer, followed by addition of PD-1-Ig (20 nM final) in 1 μl of assay buffer and further incubation for 15 m. PD-L1 fusion proteins from either human, cynomologous macaques, mouse, or other species were used. HTRF detection was achieved using europium crypate-labeled anti-Ig monoclonal antibody (1 nM final) and allophycocyanin (APC) labeled anti-His monoclonal antibody (20 nM final). Antibodies were diluted in HTRF detection buffer and 5 μl was dispensed on top of binding reaction. The reaction was allowed to equilibrate for 30 minutes and signal (665 nm/620 nm ratio) was obtained using an EnVision fluorometer. Additional binding assays were established between PD-1-Ig/PD-L2-His (20 and 5 nM, respectively), CD80-His/PD-L1-Ig (100 and 10 nM, respectively) and CD80-His/CTLA4-Ig (10 and 5 nM, respectively). Binding/competition studies between biotinylated Compound No. 71 and human PD-L1-His were performed as follows. Macrocyclic peptide inhibitors were pre-incubated with PD-L1-His (10 nM final) for 60 minutes in 4 μl of assay buffer followed by addition of biotinylated Compound No. 71 (0.5 nM final) in 1 μl of assay buffer. Binding was allowed to equilibrate for 30 minutes followed by addition of europium crypated labeled Streptavidin (2.5 pM final) and APC-labeled anti-His (20 nM final) in 5 μl of HTRF buffer. The reaction was allowed to equilibrate for 30 m and signal (665 nm/620 nm ratio) was obtained using an EnVision fluorometer.
# Recombinant Proteins. Carboxyl-truncated human PD-1 (amino acids 25-167) with a C-terminal human Ig epitope tag [hPD-1 (25-167)-3S-IG] and human PD-L1 (amino acids 18-239) with a C-terminal His epitope tag [hPD-L1(19-239)-tobacco vein mottling virus protease cleavage site (TVMV)-His] were expressed in HEK293T cells and purified sequentially by recombinant Protein A affinity chromatography and size exclusion chromatography. Human PD-L2-His (Sino Biologicals), CD80-His (Sino Biologicals), CTLA4-Ig (RnD Systems) were all obtained through commercial sources.
# Ranges are as follows: A=0.010-0.060 μM; B=0.0011-0.009 μM; C=0.0003-0.0010 μM.
# T1 sequence (Q9NZQ7 with tags, fused parts or gaps): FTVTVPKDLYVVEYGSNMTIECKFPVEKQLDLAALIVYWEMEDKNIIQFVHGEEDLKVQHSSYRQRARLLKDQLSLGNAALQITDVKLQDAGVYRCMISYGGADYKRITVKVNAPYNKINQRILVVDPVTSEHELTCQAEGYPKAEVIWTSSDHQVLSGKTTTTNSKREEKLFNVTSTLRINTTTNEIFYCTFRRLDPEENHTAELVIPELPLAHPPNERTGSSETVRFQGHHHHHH
row,SMILES,IC50 [nM]
1,CCCC[C@H]1C(=O)N(C)[C@@H](CCCC)C(=O)N[C@@H](CC(C)C)C(=O)N[C@H](C(=O)NCC(=O)N[C@@H](CC(=O)NCCCOCCOCCOCCCNC(=O)CC[C@H](NC(=O)CCCCCCCCCCCCCCCCC(=O)O)C(=O)O)C(=O)O)CSCC(=O)N[C@@H](Cc2ccc(O)cc2)C(=O)N(C)[C@@H](C)C(=O)N[C@@H](CC(N)=O)C(=O)N2CCC[C@H]2C(=O)N[C@@H](CN)C(=O)N[C@@H](CC(C)C)C(=O)N2C[C@H](O)C[C@H]2C(=O)N[C@@H](Cc2c[nH]c3ccccc23)C(=O)N[C@@H](CCN)C(=O)N[C@@H](Cc2cn(CC(=O)NS(C)(=O)=O)c3ccccc23)C(=O)N1C [Example 1] ({CH2CO}-Y[NMeA]NP[Dap]L[Hyp]W[Dab][Trp(1-CH2CONHSO2Me)][NMeNle][NMeNle]LCGD(X3)-OH; thioether N-14),1.2

# Same assay, conditions: PD-1-Ig (20 nM) / PD-L1-His (10 nM); range classes; read-out: LE HTRF hPD1 hPDL1 IC50
row,SMILES,IC50 [nM]
1,CCCC[C@H]1C(=O)N(C)[C@@H](CCCC)C(=O)N[C@@H](CC(C)C)C(=O)N[C@H](C(=O)NCC(=O)N[C@@H](CC(=O)NCCCOCCOCCOCCCNC(=O)CC[C@H](NC(=O)CCCCCCCCCCCCCCC(=O)O)C(=O)O)C(=O)O)CSCC(=O)N[C@@H](Cc2ccc(O)cc2)C(=O)N(C)[C@@H](C)C(=O)N[C@@H](CC(N)=O)C(=O)N2CCC[C@H]2C(=O)N[C@@H](CN)C(=O)N[C@@H](CC(C)C)C(=O)N2C[C@H](O)C[C@H]2C(=O)N[C@@H](Cc2c[nH]c3ccccc23)C(=O)N[C@@H](CCN)C(=O)N[C@@H](Cc2cn(CC(=O)O)c3ccc(OC)cc23)C(=O)N1C [Example 21] ({CH2CO}-Y[NMeA]NP[Dap]L[Hyp]W[Dab][X6][NMeNle][NMeNle]LCGD(X1)-OH; thioether N-14),1.1 to 9
2,CCCC[C@H]1C(=O)N(C)[C@@H](CCCC)C(=O)N[C@@H](CC(C)C)C(=O)N[C@H](C(=O)N[C@@H](Cc2cn(CCOCCOCCOCCOCCOCCOCCOCCOCCOCCOCCOCCNC(=O)CC[C@H](NC(=O)CCCCCCCCCCCCCCCCC(=O)O)C(=O)O)nn2)C(=O)O)CSCC(=O)N[C@@H](Cc2ccc(O)cc2)C(=O)N(C)[C@@H](C)C(=O)N[C@@H](CC(N)=O)C(=O)N2CCC[C@H]2C(=O)N[C@@H](CN)C(=O)N[C@@H](CC(C)C)C(=O)N2C[C@H](O)C[C@H]2C(=O)N[C@@H](Cc2c[nH]c3ccccc23)C(=O)N[C@@H](CCN)C(=O)NC(Cc2cn(CC(=O)O)c3ncccc23)C(=O)N1C (stereo partly shown) [Example 25],10 to 60
3,"CCCC[C@H]1C(=O)N(C)[C@@H](CCCC)C(=O)N[C@@H](CC(C)C)C(=O)N[C@H](C(=O)NCC(=O)N[C@@H](CC(=O)NCCCOCCOCCOCCCNC(=O)CC[C@H](NC(=O)CCCCCCCCCCCCCCCCC(=O)O)C(=O)O)C(=O)O)CSCC(=O)N[C@@H](Cc2ccc(O)cc2)C(=O)N(C)[C@@H](C)C(=O)N[C@@H](CC(N)=O)C(=O)N2CCC[C@H]2C(=O)N[C@@H](CN)C(=O)N[C@@H](CC(C)C)C(=O)N2C[C@H](O)C[C@H]2C(=O)N[C@@H](Cc2c[nH]c3ccccc23)C(=O)N[C@@H](CCN)C(=O)N[C@@H](Cc2cn(CC(=O)O)c3cccnc23)C(=O)N1C [Example 7] ({CH2CO}-Y[NMeA]NP[Dap]L[Hyp]W[Dab][Trp(4-aza,1-CH2COOH)][NMeNle][NMeNle]LCGD(X3)-OH; thioether N-14)",1.1 to 9
4,CCCC[C@H]1C(=O)N(C)[C@@H](CCCC)C(=O)N[C@@H](CC(C)C)C(=O)N[C@H](C(=O)NCC(=O)N[C@@H](Cc2cn(CCOCCOCCOCCOCCOCCOCCOCCOCCOCCOCCOCCNC(=O)CC[C@H](NC(=O)CCCCCCCCCCCCCCCCC(=O)O)C(=O)O)nn2)C(=O)O)CSCC(=O)N[C@@H](Cc2ccc(O)cc2)C(=O)N(C)[C@@H](C)C(=O)N[C@@H](CC(N)=O)C(=O)N2CCC[C@H]2C(=O)N[C@@H](CN)C(=O)N[C@@H](CC(C)C)C(=O)N2C[C@H](O)C[C@H]2C(=O)N[C@@H](Cc2c[nH]c3ccccc23)C(=O)N[C@@H](CCN)C(=O)N[C@@H](Cc2cn(CC(=O)NS(C)(=O)=O)c3ccccc23)C(=O)N1C [Example 30],1.1 to 9
5,CCCC[C@H]1C(=O)N(C)[C@@H](CCCC)C(=O)N[C@@H](CC(C)C)C(=O)N[C@H](C(=O)NCC(=O)N[C@@H](Cc2cn(CCOCCOCCOCCOCCOCCOCCOCCOCCOCCOCCOCCNC(=O)CCC(NC(=O)CCCCCCCCCCCCCCCCC(=O)O)C(=O)O)nn2)C(=O)O)CSCC(=O)N[C@@H](Cc2ccc(O)cc2)C(=O)N(C)[C@@H](C)C(=O)N[C@@H](CC(N)=O)C(=O)N2CCC[C@H]2C(=O)N[C@@H](CN)C(=O)N[C@@H](CC(C)C)C(=O)N2C[C@H](O)C[C@H]2C(=O)N[C@@H](Cc2c[nH]c3ccccc23)C(=O)N[C@@H](CCN)C(=O)N[C@@H](Cc2cn(CC(=O)O)c3ccc(OC)cc23)C(=O)N1C (stereo partly shown) [Example 27],0.3 to 1
6,CCCC[C@H]1C(=O)N(C)[C@@H](CCCC)C(=O)N[C@@H](CC(C)C)C(=O)N[C@H](C(=O)NCC(=O)N[C@@H](CC(=O)NCCCOCCOCCOCCCNC(=O)CC[C@H](NC(=O)CCCCCCCCCCCCCCCCC(=O)O)C(=O)O)C(=O)O)CSCC(=O)N[C@@H](Cc2ccc(O)cc2)C(=O)N(C)[C@@H](C)C(=O)N[C@@H](CC(N)=O)C(=O)N2CCC[C@H]2C(=O)N[C@@H](CN)C(=O)N[C@@H](CC(C)C)C(=O)N2C[C@H](O)C[C@H]2C(=O)N[C@@H](Cc2c[nH]c3ccccc23)C(=O)N[C@@H](CCN)C(=O)N[C@H](Cc2cn(CC(=O)O)c3ncccc23)C(=O)N1C [Example 14] ({CH2CO}-Y[NMeA]NP[Dap]L[Hyp]W[Dab][X2][NMeNle][NMeNle]LCGD(X3)-OH; thioether N-14),10 to 60
7,CCCC[C@H]1C(=O)N(C)[C@@H](CCCC)C(=O)N[C@@H](CC(C)C)C(=O)N[C@H](C(=O)NCC(=O)NCCCOCCOCCOCCCNC(=O)CC[C@H](NC(=O)CCCCCCCCCCCCCCCCC(=O)O)C(=O)O)CSCC(=O)N[C@@H](Cc2ccc(O)cc2)C(=O)N(C)[C@@H](C)C(=O)N[C@@H](CC(N)=O)C(=O)N2CCC[C@H]2C(=O)N[C@@H](CN)C(=O)N[C@@H](CC(C)C)C(=O)N2C[C@H](O)C[C@H]2C(=O)N[C@@H](Cc2c[nH]c3ccccc23)C(=O)N[C@@H](CCN)C(=O)N[C@@H](Cc2cn(CC(=O)NS(C)(=O)=O)c3ccccc23)C(=O)N1C [Example 3] ({CH2CO}-Y[NMeA]NP[Dap]L[Hyp]W[Dab][Trp(1-CH2CONHSO2Me)][NMeNle][NMeNle]LCG-X3; thioether N-14),1.1 to 9
8,CCCC[C@H]1C(=O)N(C)[C@@H](CCCC)C(=O)N[C@@H](CC(C)C)C(=O)N[C@H](C(=O)NCC(=O)N[C@@H](CC(=O)NCCCOCCOCCOCCCNC(=O)CC[C@H](NC(=O)CCCCCCCCCCCCCCCCC(=O)O)C(=O)O)C(=O)O)CSCC(=O)N[C@@H](Cc2ccc(O)cc2)C(=O)N(C)[C@@H](C)C(=O)N[C@@H](CC(N)=O)C(=O)N2CCC[C@H]2C(=O)N[C@@H](CN)C(=O)N[C@@H](CC(C)C)C(=O)N2C[C@H](O)C[C@H]2C(=O)N[C@@H](Cc2c[nH]c3ccccc23)C(=O)N[C@@H](CCN)C(=O)N[C@@H](Cc2cn(CC(=O)O)c3ccc(OC)cc23)C(=O)N1C [Example 12] ({CH2CO}-Y[NMeA]NP[Dap]L[Hyp]W[Dab][X6][NMeNle][NMeNle]LCGD(X3)-OH; thioether N-14),0.3 to 1
9,CCCC[C@H]1C(=O)N(C)[C@@H](CCCC)C(=O)N[C@@H](CC(C)C)C(=O)N[C@H](C(=O)NCC(=O)N[C@@H](CC(=O)NCCCOCCOCCOCCCNC(=O)CC[C@H](NC(=O)CCCCCCCCCCCCCCC(=O)O)C(=O)O)C(=O)O)CSCC(=O)N[C@@H](Cc2ccc(O)cc2)C(=O)N(C)[C@@H](C)C(=O)N[C@@H](CC(N)=O)C(=O)N2CCC[C@H]2C(=O)N[C@@H](CN)C(=O)N[C@@H](CC(C)C)C(=O)N2C[C@H](O)C[C@H]2C(=O)N[C@@H](Cc2c[nH]c3ccccc23)C(=O)N[C@@H](CCN)C(=O)N[C@@H](Cc2cn(CC(=O)NS(C)(=O)=O)c3ccccc23)C(=O)N1C [Example 15] ({CH2CO}-Y[NMeA]NP[Dap]L[Hyp]W[Dab][Trp(1-CH2CONHSO2Me)][NMeNle][NMeNle]LCGD(X1)-OH; thioether N-14),1.1 to 9
